Experimental findings from PubChem BioAssay AID1872 (NMMLSC, 2009) are described below.

Broadly, the Ki is the equilibrium dissociation constant of an inhibitor or competing ligand from its target. A higher Ki goes with a looser hold on the target. The term EC50 denotes the concentration needed to bring the measured effect to its halfway point.

For this assay, the target named is Regulator of G-protein signaling 4 (Homo sapiens) (UniProt P49798). As to the kind of experiment: RGS4-Galphao interaction modulators, dose response, biochemical, bead-based flow cytometry, multiplex (AID 1872). Conditions: Bead-based flow cytometry RGS4-Galphao binding; for Ki: measured here: Ki for RGS4-Galphao. (Flow cytometry measures light scatter and fluorescence of single cells or particles in a stream.)

SMILES strings stand for the structures. Activity calls are given as the source filed them. No rule for the calls is given here.

Sequence of Regulator of G-protein signaling 4 (Homo sapiens) (P49798 whole entry, looked up): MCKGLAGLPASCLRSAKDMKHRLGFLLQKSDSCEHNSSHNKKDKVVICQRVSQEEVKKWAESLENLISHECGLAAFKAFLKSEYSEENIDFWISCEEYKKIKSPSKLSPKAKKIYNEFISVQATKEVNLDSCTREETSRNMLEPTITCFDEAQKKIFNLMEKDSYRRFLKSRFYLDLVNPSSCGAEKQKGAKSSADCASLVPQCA

As to `COCCCNC(=O)c1ccc2c3c(onc13)-c1ccccc1C2=O`, the Ki was determined as 2.62 µM.
On the same count and under the same terms, next, `CC(=O)N(O)CCCCCNC(=O)CCC(=O)N(O)CCCCCNC(=O)CCC(=O)N(O)CCCCCN`: 1.34 µM.
As to `CC(C)Sc1nc2ccc(N3C(=O)C4CCCCC4C3=O)cc2s1` (configuration not stated), the EC50 is > 30 µM (inactive).
Molecule `O=C(OCC1O[C@@H](OC(=O)c2cc(O)c(O)c(O)c2)[C@@H](OC(=O)c2cc(O)c(O)c(O)c2)[C@@H](OC(=O)c2cc(O)c(O)c(O)c2)[C@@H]1OC(=O)c1cc(O)c(O)c(O)c1)c1cc(O)c(O)c(O)c1` (some centres not stated) had a Ki of 0.38 µM.
Same read-out and setting: to `CCN(CC)S(=O)(=O)c1cccc(C(=O)N/N=C/c2ccc(O)c(O)c2O)c1` belongs 4.73 µM; to `CC1(C)OC(=O)C(=Cc2ccc(-c3ccc(S(N)(=O)=O)cc3)o2)C(=O)O1`, 8.26 µM; to `Cc1cc(Cl)ccc1N=c1ssnc1Cl`, 4.58 µM.
Still for that read-out and setting: to `O=C1CCC(=O)N(O)CCCCCNC(=O)CCC(=O)N(O)CCCCCNC(=O)CCC(=O)N(O)CCCCCN1` belongs 2.2 µM; to `CCC(=O)NC(c1ccc(C)cc1)c1cc([N+](=O)[O-])c2cccnc2c1O` (configuration not stated), 10.1 µM; to `COc1ccc(OC)c(CCNC(=O)Cn2sc3nc(C)cc(C)c3c2=O)c1`, 5.6 µM.
On the same count and under the same terms, to `O=C(O[C@@H]1OC2COC(=O)c3cc(O)c(O)c(O)c3-c3c(cc(O)c(O)c3O)C(=O)O[C@@H]([C@H]1O)[C@@H]2O)c1cc(O)c(O)c(O)c1` belongs 3.51 µM.
Turning to `CCOC(=O)N=Nc1c(O)n(C)c2ccccc12`, the EC50 is > 30 µM (inactive).
For the molecule `NS(=O)(=O)c1ccc(N/N=C/c2ccc(O)c(O)c2O)c([N+](=O)[O-])c1`, the EC50 was 3.56 µM and the inhibition constant Ki came out at 3.03 µM.
On to `O=C(COc1ccccc1C(=O)N/N=C\c1ccc(O)c(O)c1)N/N=C/c1ccc(O)c(O)c1`, for which the inhibition constant Ki worked out at 3.24 µM.
`CCNc1ccc2noc3c2c1C(=O)c1ccccc1-3`: the Ki amounted to 22.5 µM.
Same read-out and setting: to `CCN1/C(=C/C=C/C=C/c2sc3ccccc3[n+]2CC)Sc2ccccc21` belongs 2.9 µM.
The same measure, in the same setting: next, `CN1CCN(C2=C(Cl)C(=O)C(c3cnc(N4CCCCC4)s3)=C(Cl)C2=O)CC1`: 0.3 µM; `O=C1OCC2OC(O)C(O)C(O)C2OC(=O)c2cc(O)c(O)c(O)c2-c2c(O)c(O)c3oc(=O)c4c(c(O)c(O)c5oc(=O)c2c3c54)-c2c1cc(O)c(O)c2O` (configuration not stated): 2.05 µM.
As to `O=C1CCCC2=C1C(c1cccs1)n1ncnc1N2` (configuration not stated), the EC50 result is “inactive”.
With `CN(C)[C@@H]1C(=O)C(C(=O)NCN2CCCC2)=C(O)[C@@]2(O)C(=O)C3=C(O)c4c(O)cccc4[C@@](C)(O)C3CC12` (some centres not stated), the EC50 was 11.8 µM and the inhibition constant Ki is 10 µM.
`CCN=c1scc(C)n1/N=C/c1ccc(O)c(O)c1O` had an inhibitory constant (Ki) of 21.5 µM.
In the case of `CCOC(=O)/C(C(=O)Nc1ccccc1Cl)=C1/NC(C)(C)Cc2ccccc21`, the EC50 entry is “inactive”.
Same read-out and setting: next, `COc1ccc(Br)cc1/C=N/Nc1cccc(C(=O)O)c1`: > 30 µM (inactive).
`COc1ccc(C2=CC(=O)C=CC2=O)cc1` displayed a Ki of 19.7 µM.
`Nc1c(C(=O)NCC2CCCO2)sc2nc3c(c(-c4ccco4)c12)CC/C3=C\c1ccco1` (configuration not stated) yielded a Ki of 2.77 µM. Compared with the last molecule, the Ki is about 7.1-fold lower.
In turn, `NS(=O)(=O)c1ccc(CNC(=O)/C=C/c2ccco2)cc1` had a Ki of 7.78 µM. Compared with the last molecule, the Ki is about 2.8-fold higher.
On the same count and under the same terms, next, `CCC(=O)NC1=C(Cl)C(=O)C(NC(=O)CC)=C(Cl)C1=O`: 4.61 µM; `O=C1C(Cl)=C(N2CCCCC2)C(=O)C(Cl)=C1c1cnc(N2CCCCC2)s1`: 1.55 µM.
Molecule `CN(C)c1ncc(C2=C(Cl)C(=O)C(N3CCCC3)=C(Cl)C2=O)s1` yielded a Ki of 1.95 µM.
In the case of `CCOC(=O)C1=C(C)NC(C)=C(C(=O)OCCNC(=O)c2cccnc2)C1c1cccc([N+](=O)[O-])c1` (configuration not stated), the EC50 is > 30 µM (inactive).
As to `CN=c1scc(C)n1/N=C/c1ccc(O)c(O)c1O`, the Ki turned out to be 12 µM.
The same measure, in the same setting: next, `COC(=O)CCC(=O)Nc1sc(C)c(C)c1C(N)=O`: 6.49 µM; `O=C(O)C[C@@H]1C(=O)O[C@@H]2C(COC(=O)c3cc(O)c(O)c(O)c3)O[C@@H](OC(=O)c3cc(O)c(O)c(O)c3)[C@@H](OC(=O)c3cc(O)c(O)c4c3[C@H]1[C@H](O)C(=O)O4)[C@H]2OC(=O)c1cc(O)c(O)c(O)c1` (some centres not stated): 0.88 µM.
Turning to `O=c1[nH]c(=S)n(Cc2ccco2)c(O)c1C=NCc1cccs1`, the EC50 is > 30 µM (inactive).
As for `O=C(Cc1csc(N2CCOCC2)n1)N/N=C/c1ccc(O)c(O)c1O`, the Ki was 14.8 µM. That is a double-digit micromolar value.
